Patent US7402674B2, “7-Phenylamino-4-quinolone-3-carboxylic acid derivatives, process for their preparation and their use as medicaments” (Sanofi-Aventis Deutschland GmbH,, priority 2004, dated 2008)

Biological target: T1, human glycogen phosphorylase a (Homo sapiens, UniProt P06737)
T1 sequence (P06737 1-847): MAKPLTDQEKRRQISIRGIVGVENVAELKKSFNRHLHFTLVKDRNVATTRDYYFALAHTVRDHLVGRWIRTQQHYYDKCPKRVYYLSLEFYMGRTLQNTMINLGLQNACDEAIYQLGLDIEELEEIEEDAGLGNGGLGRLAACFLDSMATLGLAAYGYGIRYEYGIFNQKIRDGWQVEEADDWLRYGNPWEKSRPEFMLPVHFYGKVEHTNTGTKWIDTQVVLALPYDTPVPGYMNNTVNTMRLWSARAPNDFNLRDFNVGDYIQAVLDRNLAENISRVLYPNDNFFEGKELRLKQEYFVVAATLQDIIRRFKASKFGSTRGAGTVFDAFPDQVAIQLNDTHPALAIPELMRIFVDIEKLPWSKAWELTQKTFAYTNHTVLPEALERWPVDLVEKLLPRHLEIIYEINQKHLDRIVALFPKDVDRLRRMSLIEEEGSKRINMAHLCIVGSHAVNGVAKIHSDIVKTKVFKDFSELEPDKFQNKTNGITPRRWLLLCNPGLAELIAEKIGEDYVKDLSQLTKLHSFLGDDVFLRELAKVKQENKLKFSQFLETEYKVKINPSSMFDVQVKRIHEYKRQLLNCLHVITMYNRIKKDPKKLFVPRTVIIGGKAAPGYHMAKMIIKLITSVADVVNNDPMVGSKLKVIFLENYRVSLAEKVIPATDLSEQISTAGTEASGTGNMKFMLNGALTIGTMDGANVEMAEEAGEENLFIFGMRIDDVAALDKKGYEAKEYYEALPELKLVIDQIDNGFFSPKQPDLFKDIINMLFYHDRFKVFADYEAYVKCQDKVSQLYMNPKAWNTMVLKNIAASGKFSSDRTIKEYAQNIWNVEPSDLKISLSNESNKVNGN
Test: Glycogen phosphorylase a activity assay
Format: biochemical
Conditions: 10 μM test substance; reverse direction (glycogen synthesis from glucose 1-phosphate, liberated inorganic phosphate)
Method: Glycogen Phosphorylase a Activity Assay
The effect of compounds on the activity of the active form of glycogen phosphorylase (GPa) was measured in the reverse direction by following the synthesis of glycogen from glucose 1-phosphate by determining the liberation of inorganic phosphate. All the reactions were carried out as duplicate determinations in microtiter plates with 96 wells (Half Area Plates, Costar No 3696), measuring the change in absorption owing to the formation of the reaction product at the wavelength specified hereinafter in a Multiskan Ascent Elisa Reader (Lab Systems, Finland).
In order to measure the GPa enzymic activity in the reverse direction, the general method of Engers et al. (Engers H D, Shechosky S, Madsen N B, Can J Biochem 1970 July; 48(7):746-754) was used to measure the conversion of glucose 1-phosphate into glycogen and inorganic phosphate, with the following modifications: human glycogen phosphorylase a (for example with 0.76 mg of protein/ml (Aventis Pharma Deutschland GmbH), dissolved in buffer solution E (25 mM β-glycerophosphate, pH 7.0, 1 mM EDTA and 1 mM dithiothreitol) was diluted with buffer T (50 mM Hepes, pH 7.0, 100 mM KCl, 2.5 mM EDTA, 2.5 mM MgCl2.6H2O) and addition of 5 mg/ml glycogen to a concentration of 10 μg of protein/ml. […] After incubation at 45° C. for 60 minutes, the absorption at 820 nm was measured. […]

## 1-Ethyl-6-(4-ethylphenylamino)-7-methyl-4-oxo-1,4-dihydro-[1,8]naphthyridine-3-carboxylate [Example 1]
  % inhibition at 10 μM: 14%
